In patent US12497405B2, “Bicyclic heterocycle compounds methods of use thereof for the treatment of herpes viruses” (Merck Sharp & Dohme LLC, priority 2019, dated 2025) one finds IC50 and EC50 data, which are given here for 8 molecules.

The structures appear in SMILES notation.

The target in test [1] is Human cytomegalovirus DNA polymerase (Human cytomegalovirus (strain AD169) (HHV-5) (Human herpesvirus 5), UniProt P08546). Kind of test: CMV polymerase assay (AlphaLISA). The settings on record: HCMV polymerase 0.2 nM, 30 min pre-incubation, 60 minute at 37° C. The format is biochemical. The procedure, abridged: (§1)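 Baculovirus/SF21-expressed polymerase (HCMV 0.2 nM, VZV 0.4 nM final) was preincubated 30 min at room temperature with compound in HEPES pH 7.5/Mg buffer. Reactions with 1.6 nM DIG-primer/template, low nM dNTPs and biotin-dUTP ran 60 min at 37 °C. AlphaLISA readout, normalized to controls, 4-parameter IC50.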
(In general: Alpha assays give light when donor and acceptor beads are brought close together.)

For test [2], the target named is varicella zoster virus DNA polymerase (Varicella-zoster virus (strain Dumas) (HHV-3) (Human herpesvirus 3), UniProt P09252). The experiment in a line: VZV polymerase assay (AlphaLISA). The format is biochemical. The settings on record: VZV polymerase 0.4 nM, 30 min pre-incubation, 60 minute at 37° C. The procedure, abridged:
as §1

The test system of another test is CMV. Kind of test: Viral qPCR assay, CMV. The conditions noted are these: Human betaherpesvirus 5, 72 h, infected cells, viral genome copies by qPCR normalized to PPIA, read-out: CMV Cell EC50. It counts as cell-based. The gist of the method: (§2)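 EC50 from 4-parameter fit of viral genome copies normalized to cellular PPIA, quantified by TaqMan qPCR with plasmid standard curves. Cells (MRC5, Vero or MeWo) infected in suspension, exposed ~72 h at 37 °C to 10-point 3-fold dilutions; controls uninfected and DMSO-infected cells.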

The subject of a further test is HSV1. The experiment in a line: Viral qPCR assay, HSV1. The settings on record: Human alphaherpesvirus 1, 72 h, infected cells, viral genome copies by qPCR normalized to PPIA, read-out: HSV1 Cell EC50. It counts as cell-based. The procedure, abridged: as §2
For orientation: Quantitative PCR measures a nucleic acid by following its amplification.

Another test deals with HSV2. The experiment in a line: Viral qPCR assay, HSV2. The settings on record: Human alphaherpesvirus 2, 72 h, infected cells, viral genome copies by qPCR normalized to PPIA, read-out: HSV2 Cell EC50. The format is cell-based. The procedure, abridged:
as §2

For orientation: IC50 means the concentration at which inhibition is half-maximal. Low values mean higher potency, high ones lower potency. What is called EC50 is the concentration that produces a half-maximal response.

For `Cc1nc2cc(-c3cc4n(n3)CCN(C)C4)c(O[C@H]3CCN4C(=O)OC[C@@H]4C3)cc2c(=O)n1Cc1ccc(Cl)cc1` [Example 86], the IC50 in test [1] and in test [2] was 0.44 nM in each case. Besides, the values for the EC50 in the test on CMV, with HSV1 and in the test on HSV2 were 68 nM, 58 nM and 41 nM, respectively.

As for `Cc1nc2cc(-c3cn4c(n3)CN(C)CC4)c(O[C@H]3CCN4C(=O)OC[C@@H]4C3)cc2c(=O)n1Cc1ccc(C#N)cc1` [Example 87], the IC50 came to 0.44 nM in test [1] and 0.8 nM in test [2]. In addition, the EC50 came out at 198 nM in the test with CMV, 313 nM with HSV1 and 275 nM in the test with HSV2.

As to `COc1cnc(-c2cc3nc(C)n(Cc4ccc(Cl)cc4)c(=O)c3cc2O[C@H]2CCN3C(=O)OC[C@@H]3C2)nc1` [Example 88], the IC50 in test [1] stood at 28 nM; in test [2], 25 nM. In addition, the EC50 was found to be 718 nM in the test with CMV, 543 nM in the test on HSV1 and 225 nM in the test with HSV2.

For the molecule `Cc1ncc(-c2cc3nc(C)n(Cc4ccc(Cl)cc4)c(=O)c3cc2O[C@H]2CCN3C(=O)OC[C@@H]3C2)cn1` [Example 90], the IC50 in test [1] came to 18 nM; in test [2] it was 16 nM. Moreover, the EC50 in the test with CMV worked out at 241 nM; in the test with HSV1 it was 214 nM; in the test with HSV2, 115 nM.

Regarding `Cc1nc2cc(-c3cnc(C4CC4)nc3)c(O[C@H]3CCN4C(=O)OC[C@@H]4C3)cc2c(=O)n1Cc1ccc(Cl)cc1` [Example 95], the figures for the IC50 in test [1] and in test [2] were 18 nM and 19 nM, respectively. Also, the EC50 with CMV is 366 nM; in the test with HSV1, 301 nM; in the test on HSV2 it was 182 nM.

`Cc1nc2cc(-c3cnc(N4CCOCC4)nc3)c(O[C@H]3CCN4C(=O)OC[C@@H]4C3)cc2c(=O)n1Cc1ccc(Cl)cc1` [Example 97]: the IC50 in test [1] is 14 nM; in test [2], 15 nM. Also, the EC50 in the test on CMV is 198 nM; with HSV1, 163 nM; in the test on HSV2, 96 nM.

Regarding `CCOc1ncc(-c2cc3nc(C)n(Cc4ccc(Cl)cc4)c(=O)c3cc2O[C@H]2CCN3C(=O)OC[C@@H]3C2)cn1` [Example 98], the IC50 in test [1] is 16 nM; in test [2] it was 15 nM. The EC50 stood at 284 nM in the test on CMV, 256 nM in the test on HSV1 and 185 nM with HSV2.

Consider `Cc1nc2cc(-c3cc4n(n3)CCN(CC(F)(F)F)C4)c(O[C@H]3CCN4C(=O)OC[C@@H]4C3)cc2c(=O)n1Cc1ccc(Cl)cc1` [Example 147], for which the IC50 worked out at 7 nM in test [1] and 12 nM in test [2]. For the same molecule, the EC50 in the test on CMV was determined as 229 nM; with HSV1, 274 nM; in the test on HSV2 it was 96 nM.
